{"source": "patent US12240816B2", "about": "“Deuterated compounds and uses thereof” (Aldeyra Therapeutics, Inc., priority 2015, dated 2025)", "key": {"[1]": {"test_system": "rat hippocampal cultures", "assay": "cells", "type": "cell-based", "conditions": "for % of Control (CFDA) / CFDA signal, Mean: CBD 10 μM + 10 μM hydrogen peroxide"}, "[2]": {"test_system": "rat hippocampal cultures", "assay": "Propidium iodide cell death assay, protection from hydrogen peroxide toxicity", "type": "cell-based", "conditions": "for % of Control (PI) / PI signal, replicate wells: CBD 10 μM + 10 μM hydrogen peroxide"}, "[3]": {"molecular_target": "enzyme and uptake assay panel targets (Table 36) (Homo sapiens, UniProt Q9BYF1)", "sequence (Q9BYF1 18-805)": "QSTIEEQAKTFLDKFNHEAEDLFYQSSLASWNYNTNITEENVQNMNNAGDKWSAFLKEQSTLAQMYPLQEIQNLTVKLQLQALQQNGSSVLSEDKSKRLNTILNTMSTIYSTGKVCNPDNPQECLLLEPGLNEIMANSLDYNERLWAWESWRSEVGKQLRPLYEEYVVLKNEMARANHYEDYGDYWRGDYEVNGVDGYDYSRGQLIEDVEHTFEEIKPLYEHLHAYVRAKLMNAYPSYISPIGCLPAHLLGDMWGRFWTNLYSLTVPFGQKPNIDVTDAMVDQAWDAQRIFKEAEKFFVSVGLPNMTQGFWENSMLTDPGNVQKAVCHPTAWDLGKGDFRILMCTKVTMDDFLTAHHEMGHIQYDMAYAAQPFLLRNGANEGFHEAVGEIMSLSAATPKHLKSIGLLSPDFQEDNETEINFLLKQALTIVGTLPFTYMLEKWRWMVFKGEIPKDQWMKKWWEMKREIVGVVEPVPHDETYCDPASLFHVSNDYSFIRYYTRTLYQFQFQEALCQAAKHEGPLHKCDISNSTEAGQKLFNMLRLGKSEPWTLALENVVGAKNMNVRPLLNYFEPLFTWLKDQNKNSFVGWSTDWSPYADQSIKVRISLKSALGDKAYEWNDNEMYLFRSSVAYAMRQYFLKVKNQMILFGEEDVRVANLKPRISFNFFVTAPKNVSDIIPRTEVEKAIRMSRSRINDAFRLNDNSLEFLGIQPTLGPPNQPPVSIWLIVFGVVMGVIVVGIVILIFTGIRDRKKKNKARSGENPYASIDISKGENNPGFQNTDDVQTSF", "assay": "biochemical", "type": "biochemical", "conditions": "ACE-2 (h); reference compound"}, "[4]": {"molecular_target": "enzyme and uptake assay panel targets (Table 36) (Mus musculus, UniProt P29477)", "sequence (P29477 whole entry)": "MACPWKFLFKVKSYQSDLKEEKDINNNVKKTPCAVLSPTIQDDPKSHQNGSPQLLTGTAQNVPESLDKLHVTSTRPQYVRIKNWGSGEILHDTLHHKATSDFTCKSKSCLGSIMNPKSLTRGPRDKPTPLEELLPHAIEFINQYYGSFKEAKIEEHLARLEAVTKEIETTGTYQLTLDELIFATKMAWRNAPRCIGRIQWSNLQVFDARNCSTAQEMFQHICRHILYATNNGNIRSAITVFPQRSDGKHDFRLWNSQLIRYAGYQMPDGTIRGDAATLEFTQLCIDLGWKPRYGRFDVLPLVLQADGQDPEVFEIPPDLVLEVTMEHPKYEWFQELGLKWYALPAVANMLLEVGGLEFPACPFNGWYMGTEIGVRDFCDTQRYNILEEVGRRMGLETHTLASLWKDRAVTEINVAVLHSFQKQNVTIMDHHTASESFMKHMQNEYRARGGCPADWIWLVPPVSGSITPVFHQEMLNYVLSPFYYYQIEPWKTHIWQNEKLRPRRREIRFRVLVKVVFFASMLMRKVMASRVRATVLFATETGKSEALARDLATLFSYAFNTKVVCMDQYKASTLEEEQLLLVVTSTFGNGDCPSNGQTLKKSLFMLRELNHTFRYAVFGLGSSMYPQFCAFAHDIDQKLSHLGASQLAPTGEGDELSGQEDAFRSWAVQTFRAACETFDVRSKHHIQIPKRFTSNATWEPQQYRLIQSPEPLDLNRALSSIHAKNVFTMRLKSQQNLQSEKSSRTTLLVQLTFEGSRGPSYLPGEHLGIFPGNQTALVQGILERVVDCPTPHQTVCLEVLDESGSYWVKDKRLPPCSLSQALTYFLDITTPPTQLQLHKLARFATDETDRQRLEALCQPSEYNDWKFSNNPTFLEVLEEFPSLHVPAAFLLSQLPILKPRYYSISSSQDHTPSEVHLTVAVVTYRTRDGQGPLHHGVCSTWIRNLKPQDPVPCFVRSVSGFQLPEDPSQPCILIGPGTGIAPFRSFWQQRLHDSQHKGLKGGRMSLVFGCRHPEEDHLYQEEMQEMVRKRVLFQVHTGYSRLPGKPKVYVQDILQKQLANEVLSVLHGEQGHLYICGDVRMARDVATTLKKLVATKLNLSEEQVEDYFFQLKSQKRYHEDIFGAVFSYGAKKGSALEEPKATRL", "assay": "biochemical", "type": "biochemical", "conditions": "inducible NOS; reference compound"}, "[5]": {"molecular_target": "T1, MT3 (ML2) (Mesocricetus auratus, UniProt A0ABM2YAB8)", "T1 sequence (A0ABM2YAB8 1-231)": "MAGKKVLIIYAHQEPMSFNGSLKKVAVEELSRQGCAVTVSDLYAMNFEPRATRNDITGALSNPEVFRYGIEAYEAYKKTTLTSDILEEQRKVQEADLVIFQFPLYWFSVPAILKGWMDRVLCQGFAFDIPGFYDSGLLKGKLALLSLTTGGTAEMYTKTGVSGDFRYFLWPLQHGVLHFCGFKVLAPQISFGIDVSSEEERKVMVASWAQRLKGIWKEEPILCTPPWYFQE", "assay": "MT3 (ML2) (agonist radioligand) binding assay", "conditions": "MT3 (ML2) (agonist radioligand)"}, "[6]": {"molecular_target": "T2, PR (h) (Homo sapiens, UniProt P06401)", "T2 construct": "T47D cells (cytosol)", "T2 sequence (P06401 679-933)": "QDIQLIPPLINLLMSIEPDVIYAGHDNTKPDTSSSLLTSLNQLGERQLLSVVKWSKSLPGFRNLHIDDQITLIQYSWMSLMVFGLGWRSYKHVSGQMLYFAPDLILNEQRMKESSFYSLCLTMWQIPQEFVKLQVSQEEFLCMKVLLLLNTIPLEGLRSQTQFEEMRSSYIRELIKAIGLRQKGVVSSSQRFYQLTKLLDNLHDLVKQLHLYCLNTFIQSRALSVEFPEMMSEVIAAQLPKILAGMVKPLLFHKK", "assay": "PR (h) (agonist radioligand) binding assay"}, "[7]": {"conditions": "Example 13, CFDA, DMSO, 10 μM hydrogen peroxide, 5 h, 0.1 to 300 μM tested"}, "[8]": {"conditions": "Example 13, PI, DMSO, 10 μM hydrogen peroxide, 5 h, 0.1 to 300 μM tested"}, "[9]": {"conditions": "5 h, Experiment 9 (vehicle plates, Tables 17 and 18)"}, "[10]": {"conditions": "positive control CBD + HP 10 μM, 5 hours"}, "[11]": {"conditions": "5 h, Experiment 10 (vehicle plates, Tables 19 and 20)"}}, "note": "Values joined by “and” are separate entries in the source; they are usually repeats but may differ in a detail not shown here. Equal values may be shown once. “Also recorded” adds a separate entry of the source. Marks after values point to notes of the source that are not given here."}
{"compound": "CC(C)(O)c1nc2ncccc2cc1N", "note": "[ALD-5]", "values": [{"measurement": "EC50 ± SE", "setting": "[1]; [7]", "value": "Inactive"}, {"measurement": "Full Efficacy Concentration", "setting": "[1]; [7]", "value": "Inactive"}, {"measurement": "No effect Concentration", "setting": "[1]; [7]", "value": "Inactive"}, {"measurement": "EC50 ± SE", "setting": "[2]; [8]", "value": "Inactive"}, {"measurement": "Full Efficacy Concentration", "setting": "[2]; [8]", "value": "Inactive"}, {"measurement": "No effect Concentration", "setting": "[2]; [8]", "value": "Inactive"}, {"measurement": "protection from cell death", "setting": "[2]; PI, 0.1 to 300 μM, DMSO, 10 μM hydrogen peroxide, 5 h", "value": "no statistically significant protection from cell death; also recorded: did not produce statistically significant protection from cell death"}]}
{"compound": "CC(=O)NCC(=O)N[C@@H](CC(=O)O)C(=O)N[C@@H](Cc1ccc(O)cc1)C(=O)N[C@@H](CO)C(=O)N[C@@H](Cc1c[nH]cn1)C(=O)N[C@H]1CSSC[C@@H](C(=O)N[C@H](C(=O)N[C@@H](Cc2ccc(O)cc2)C(=O)N2CCC[C@H]2C(=O)N[C@@H](CC(=O)O)C(=O)N2CCC[C@H]2C(=O)N[C@@H](CCC(=O)O)C(=O)NCC(=O)NCC(=O)NCC(N)=O)[C@@H](C)O)NC(=O)[C@H](CCCCN)NC(=O)[C@H](Cc2c[nH]c3ccccc23)NC(=O)[C@H](Cc2c[nH]c3ccccc23)NC(=O)[C@@H]2CCCN2C(=O)[C@H](Cc2ccc(O)cc2)NC(=O)[C@H](Cc2ccc(O)cc2)NC(=O)[C@H](CCCNC(=N)N)NC(=O)[C@H](CC(C)C)NC(=O)[C@@H]2CCCN2C(=O)[C@H](CO)NC1=O", "note": "[Ac-GG-26-NH2]", "values": [{"measurement": "IC50", "setting": "[3]", "value": 0.29, "unit": "µM"}, {"measurement": "nH", "setting": "[3]", "value": 2.4}]}
{"compound": "C=C(C)[C@@H]1CCC(C)=C[C@H]1c1c(O)cc(CCCCC)cc1O", "note": "[CBD, cannabidiol, reference compound]", "values": [{"measurement": "% of Control (CFDA)", "setting": "[1]; [9]", "value": "99 ± 7", "unit": "%"}, {"measurement": "CFDA signal, Mean", "setting": "[1]; [9]", "value": "43543*"}, {"measurement": "% of Control (CFDA)", "setting": "[1]; 5 h, Table 9 plate", "value": "105 ± 4", "unit": "%"}, {"measurement": "CFDA signal, Mean", "setting": "[1]; 5 h, Table 9 plate", "value": "48894*"}, {"measurement": "% of Control (CFDA)", "setting": "[1]; 5 h, Table 11 plate", "value": "103 ± 5", "unit": "%"}, {"measurement": "CFDA signal, Mean", "setting": "[1]; 5 h, Table 11 plate", "value": "44366*"}, {"measurement": "% of Control (CFDA)", "setting": "[1]; 5 h, Table 13 plate", "value": "102 ± 12", "unit": "%"}, {"measurement": "CFDA signal, Mean", "setting": "[1]; 5 h, Table 13 plate", "value": "40858*"}, {"measurement": "% of Control (CFDA)", "setting": "[1]; 5 h, Table 15 plate", "value": "100 ± 7", "unit": "%"}, {"measurement": "CFDA signal, Mean", "setting": "[1]; 5 h, Table 15 plate", "value": "41741*"}, {"measurement": "Neuronal viability (CFDA), % of Control", "setting": "[1]; [10]", "value": "101 ± 3% and 97 ± 4%"}, {"measurement": "Neuronal viability (CFDA), Mean", "setting": "[1]; [10]", "value": "57221* and 57590* and 55059*"}, {"measurement": "% of Control (PI)", "setting": "[2]; [11]", "value": "112 ± 7", "unit": "%"}, {"measurement": "PI signal, replicate wells", "setting": "[2]; [11]", "value": "184 and 156 and 180"}, {"measurement": "% of Control (PI)", "setting": "[2]; 5 h, Table 10 plate", "value": "97 ± 9", "unit": "%"}, {"measurement": "PI signal, replicate wells", "setting": "[2]; 5 h, Table 10 plate", "value": "117 and 180 and 121 and 192"}, {"measurement": "% of Control (PI)", "setting": "[2]; 5 h, Table 12 plate", "value": "102 ± 11", "unit": "%"}, {"measurement": "PI signal, replicate wells", "setting": "[2]; 5 h, Table 12 plate", "value": "125 and 117 (2×) and 180 (2×)"}, {"measurement": "% of Control (PI)", "setting": "[2]; 5 h, Table 14 plate", "value": "108 ± 11", "unit": "%"}, {"measurement": "PI signal, replicate wells", "setting": "[2]; 5 h, Table 14 plate", "value": "121 and 200 and 180 and 117"}, {"measurement": "% of Control (PI)", "setting": "[2]; 5 h, Table 16 plate", "value": "103 ± 8", "unit": "%"}, {"measurement": "PI signal, replicate wells", "setting": "[2]; 5 h, Table 16 plate", "value": "129 and 184 and 180 and 117"}, {"measurement": "Cell death (Propidium Iodide), % of Control", "setting": "[2]; [10]", "value": "93 ± 9% and 91 ± 10% and 91 ± 8%"}, {"measurement": "Cell death (Propidium Iodide), Mean", "setting": "[2]; [10]", "value": "154* and 136* and 145*"}, {"measurement": "Cell death (Propidium Iodide), individual values", "setting": "[2]; [10]", "value": "171 and 123 and 197 and 119 and 83 and 147 and 164 and 139 and 104 and 175"}]}
{"compound": "CC(=N)NCc1cccc(CN)c1", "note": "[Compound 1400W]", "values": [{"measurement": "IC50", "setting": "[4]", "value": 0.04, "unit": "µM"}, {"measurement": "nH", "setting": "[4]", "value": 1.4}]}
{"compound": "COc1ccc2[nH]cc(CCNC(C)=O)c2c1", "note": "[melatonin]", "values": [{"measurement": "IC50", "setting": "[5]", "value": 0.072, "unit": "µM"}, {"measurement": "Ki", "setting": "[5]", "value": 0.071, "unit": "µM"}, {"measurement": "nH", "setting": "[5]", "value": 0.8}]}
{"compound": "CCC(=O)[C@@]1(C)CC[C@H]2[C@@H]3CCC4=CC(=O)CCC4=C3CC[C@@]21C", "note": "[promegestone]", "values": [{"measurement": "IC50", "setting": "[6]", "value": 0.00047, "unit": "µM"}, {"measurement": "Ki", "setting": "[6]", "value": 0.00038, "unit": "µM"}, {"measurement": "nH", "setting": "[6]", "value": 1.6}]}
